Measurements reported in patent US20200392158A1, “INHIBITORS OF LEUCINE RICH REPEAT KINASE 2” (GLAXOSMITHKLINE INTELLECTUAL PROPERTY DEVELOPMENT LIMITED, priority 2017, published 2020).

Each compound was assayed against T1, full length G2019 human LRRK2 (Homo sapiens, UniProt Q5S007, R50H) (assay: Full length G2019 human LRRK2 inhibition mass spectrometry assay). Conditions: LRRKtide to phospho-LRRKtide conversion, RapidFire MS, 2 mM ATP.
T1 construct: made in house; host or cells: HEK293 6E cells transduced with BacMam virus (virus generated in Sf9 cells)
Type: biochemical
Description: a. Full Length G2019 Human LRRK2 Inhibition Mass Spectrometry Assay
This assay for Leucine Rich Repeat Kinase 2 (LRRK2) inhibition is based on the direct measurement of the peptide ‘LRRKtide’ (LRRKtide: RLGRDKYKT*LRQIRQ and “*” refers to the site of phosphorylation.) and phosphorylated ‘LRRKtide’ using a high throughput Rapid Fire mass spectrometry assay. Inhibitors are compounds that reduce the conversion of LRRKtide to phospho-LRRKtide.
• 1) Compounds were dissolved in 100% DMSO at a concentration of 10 mM, and 11-point dose response curves generated using a 1 in 4 serial dilution in DMSO. 100 nL of this dilution series was then added to a 384 well, v bottom polypropylene plate (Greiner 781280), excluding columns 6 and 18. 100 nL of DMSO were added to column 6 to serve as the high control, while column 18 served as the low control containing assay buffer in place of the LRRK2 protein. Assay dilution gave a top final assay concentration of test compound of […] • 2) 5 μL of ‘enzyme solution’ containing 2× final assay concentration of purified recombinant Full length Flag-LRRK2 in assay buffer (50 mM Hepes, pH 7.2, 10 mM MgCl2, 150 mM NaCl, 5% glycerol, 0.0025% Triton X-100 and 1 mM DTT) were added to all wells using a Multidrop Combi dispenser (ThermoFisher Scientifiec), giving a final assay concentration of 25 nM LRRK2 enzyme (final concentration may vary depending on specific activity of different enzyme batches). • 3) 5 μL of substrate solution containing 50 μM LRRKtide peptide substrate and […] was added to all wells of the plate using a Multidrop Combi dispenser giving a final assay concentration of 25 μM LRRKtide peptide and 2 mM ATP. Test plates were then incubated for 1 hour at room temperature. (Incubation may vary depending on rate and linearity of reaction with different enzyme batches). • 4) 50 μl of 1% formic acid in laboratory grade water was added to all wells to quench the reaction, and plates were heat-sealed prior to centrifugation at 1348×g for 10 minutes. Test plates were then analysed on an Agilent RapidFire High Throughput solid phase extraction system coupled to AB Sciex API 4000 triple quadropole mass spectrometer with the following setting:
• Sip Height=2 mm, Aspirate=500 ms, Load time=3000 ms, Elution time=3000 ms, Requilibration=500 ms. • Flow rates: pump 1=1.5 mL/min, pump 2 1.25 mL/min pump 3=0.8 mL/min
Mass Spectrometer Settings: • LRRKtide Detection settings: Q1 mass 644.8 Da, Q3 mass 638.8, declustering potential 76 volts, collision energy 37 volts, CXP 34 volts. • Phospho-LRRKtide Detection settings: Q1 mass 671.4 Da, Q3 mass 638.8, Declustering potential 76 volts, Collision energy 37 volts, CXP 34 volts. • A C4 cartridge was used and running buffers were: A (aqueous) 0.1% formic acid in water B (organic) 0.1% formic acid, 80% acetonitrile, 20% water. • Collision gas: 12, Curtain gas: 25, Ion Source gas (1): 60, Ion Source gas (2): 60, Ion Spray Voltage: 5500, Temperature: 600, Interface Heater: ON. • Resolution Q1: low, Resolution Q3: low. • 5) Data were analysed using ActivityBase software (IDBS). A percent conversion from LRRKtide to Phospho-LRRKtide was calculated using the following formula:
% conversion=(Phospho-LRRKtide product peak area/(Phospho-LRRKtide product peak area+LRRKtide substrate peak area))*100 • A logistic 4 parameter curve fit was applied, using the following formula,
[formula] • Where x is the concentration of test sample, y is inhibition (%), a is the minimum, b is the Hill slope, c is the IC50 and d is the maximum. From this, the pIC50 was derived (−log IC50).

T1 sequence (Q5S007 with tags, fused parts or gaps R50H): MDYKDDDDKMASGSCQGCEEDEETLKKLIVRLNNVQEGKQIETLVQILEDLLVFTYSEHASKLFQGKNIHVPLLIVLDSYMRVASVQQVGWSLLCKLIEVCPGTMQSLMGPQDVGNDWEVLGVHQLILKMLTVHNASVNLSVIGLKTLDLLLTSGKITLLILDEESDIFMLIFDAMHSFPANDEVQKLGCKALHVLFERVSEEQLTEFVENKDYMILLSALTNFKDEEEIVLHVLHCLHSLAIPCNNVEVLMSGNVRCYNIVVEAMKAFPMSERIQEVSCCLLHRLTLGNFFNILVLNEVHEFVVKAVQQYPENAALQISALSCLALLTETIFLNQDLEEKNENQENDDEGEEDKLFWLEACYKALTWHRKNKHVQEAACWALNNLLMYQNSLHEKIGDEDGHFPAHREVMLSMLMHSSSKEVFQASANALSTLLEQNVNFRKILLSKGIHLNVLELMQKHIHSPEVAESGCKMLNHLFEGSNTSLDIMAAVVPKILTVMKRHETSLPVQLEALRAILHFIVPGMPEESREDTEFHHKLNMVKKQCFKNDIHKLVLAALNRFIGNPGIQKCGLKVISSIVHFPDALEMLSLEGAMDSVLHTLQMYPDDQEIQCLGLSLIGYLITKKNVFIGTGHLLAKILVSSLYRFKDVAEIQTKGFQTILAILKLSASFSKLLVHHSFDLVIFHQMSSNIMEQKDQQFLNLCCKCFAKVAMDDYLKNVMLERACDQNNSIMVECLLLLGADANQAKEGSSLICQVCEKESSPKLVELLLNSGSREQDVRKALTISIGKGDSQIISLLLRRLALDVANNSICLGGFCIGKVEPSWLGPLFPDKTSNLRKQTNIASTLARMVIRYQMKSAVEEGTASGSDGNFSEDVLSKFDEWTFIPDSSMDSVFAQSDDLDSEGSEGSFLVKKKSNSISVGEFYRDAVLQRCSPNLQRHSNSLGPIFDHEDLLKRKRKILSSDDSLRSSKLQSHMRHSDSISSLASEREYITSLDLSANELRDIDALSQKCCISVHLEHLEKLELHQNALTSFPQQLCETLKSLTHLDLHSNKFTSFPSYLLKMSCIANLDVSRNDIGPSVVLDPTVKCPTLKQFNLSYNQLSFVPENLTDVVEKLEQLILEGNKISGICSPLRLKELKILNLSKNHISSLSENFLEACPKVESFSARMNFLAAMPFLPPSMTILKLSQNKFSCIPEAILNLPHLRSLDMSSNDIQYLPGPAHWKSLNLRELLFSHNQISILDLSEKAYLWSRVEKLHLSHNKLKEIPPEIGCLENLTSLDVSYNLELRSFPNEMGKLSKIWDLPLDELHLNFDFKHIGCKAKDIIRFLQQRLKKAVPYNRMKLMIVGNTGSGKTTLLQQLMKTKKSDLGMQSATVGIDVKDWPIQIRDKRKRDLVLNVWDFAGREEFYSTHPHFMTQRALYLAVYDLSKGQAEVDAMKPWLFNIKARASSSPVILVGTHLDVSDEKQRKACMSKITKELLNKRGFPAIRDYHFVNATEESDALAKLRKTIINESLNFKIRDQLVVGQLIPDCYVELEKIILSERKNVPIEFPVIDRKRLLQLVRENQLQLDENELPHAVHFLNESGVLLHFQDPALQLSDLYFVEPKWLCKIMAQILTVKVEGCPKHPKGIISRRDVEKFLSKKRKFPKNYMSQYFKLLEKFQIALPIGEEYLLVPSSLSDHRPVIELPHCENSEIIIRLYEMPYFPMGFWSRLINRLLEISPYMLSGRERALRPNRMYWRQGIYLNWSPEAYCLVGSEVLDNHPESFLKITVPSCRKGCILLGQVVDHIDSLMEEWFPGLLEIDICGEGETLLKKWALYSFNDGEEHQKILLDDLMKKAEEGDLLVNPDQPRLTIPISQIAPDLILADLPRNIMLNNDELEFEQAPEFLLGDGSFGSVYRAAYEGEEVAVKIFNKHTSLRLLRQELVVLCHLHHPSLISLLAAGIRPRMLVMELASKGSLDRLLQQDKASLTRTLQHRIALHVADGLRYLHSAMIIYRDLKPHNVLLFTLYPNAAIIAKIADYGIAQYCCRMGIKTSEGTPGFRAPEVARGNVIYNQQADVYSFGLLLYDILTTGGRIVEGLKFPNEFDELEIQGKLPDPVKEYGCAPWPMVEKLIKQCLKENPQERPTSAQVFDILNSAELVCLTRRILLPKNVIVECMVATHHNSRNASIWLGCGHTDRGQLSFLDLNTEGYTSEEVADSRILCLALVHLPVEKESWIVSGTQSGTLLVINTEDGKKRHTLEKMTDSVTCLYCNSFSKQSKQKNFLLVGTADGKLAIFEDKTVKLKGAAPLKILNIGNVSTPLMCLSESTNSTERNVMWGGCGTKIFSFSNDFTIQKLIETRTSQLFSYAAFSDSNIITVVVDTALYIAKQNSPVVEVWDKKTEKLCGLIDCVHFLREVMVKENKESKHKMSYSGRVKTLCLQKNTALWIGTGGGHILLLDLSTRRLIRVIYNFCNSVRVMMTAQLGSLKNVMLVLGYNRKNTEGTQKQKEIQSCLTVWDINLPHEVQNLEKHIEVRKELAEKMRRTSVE

Row | IC50 [µM] | Structure (SMILES)
1 | ≤ 0.1 | Cc1c2c(nn1C1CCC(N3CCC(F)C3)CC1)OCCCNc1nc(ncc1Cl)N2 (single isomer, unassigned) [E155, 14-Chloro-5-[4-(3-fluoropyrrolidin-1-yl)cyclohexyl]-4-methyl-8-oxa-2,5,6,12,16,17-hexaazatricyclo[11.3.1. 0^3,7]heptadeca-1(16),3,6,13(17),14-pentaene]
2 | ≤ 10 | Cc1c2c(nn1C1CCOCC1F)OCCC(C)Nc1nc(ncc1Cl)N2 (single isomer, unassigned) [E26, 14-chloro-5-(3-fluorooxan-4-yl)-4,11-dimethyl-8-oxa-2,5,6,12,16,17-hexaazatricyclo [11.3.1.0^3,7]heptadeca-1(17),3,6,13,15-pentaene]
3 | ≤ 0.1 | COCC1CCOc2nn(C3CCOCC3F)c(C)c2Nc2ncc(Cl)c(n2)N1 (single isomer, unassigned) [E353, 14-Chloro-5-(3-fluorooxan-4-yl)-11-(methoxymethyl)-4-methyl-8-oxa-2,5,6,12,16,17-hexaazatricyclo [11.3. 1.0^3,7]heptadeca-1(16),3,6,13(17),14-pentaene]
4 | ≤ 10 | Cc1c2c(nn1C1CCOCC1)OCCC(C1CC1)Nc1nc(ncc1Cl)N2 (single isomer, unassigned) [E292, 14-Chloro-11-cyclopropyl-4-methyl-5-(oxan-4-yl)-8-oxa-2,5,6,12,16,17-hexaazatricyclo[11.3.1.0^3,7]heptadeca-1(16),3,6,13(17),14-pentaene]
5 | ≤ 10 | Cc1c2c(nn1C(C)C1CCOCC1)OCCC(C)Nc1nc(ncc1Cl)N2 (single isomer, unassigned) [E185, 14-Chloro-4,11-dimethyl-5-[1-(oxan-4-yl)ethyl]-8-oxa-2,5,6,12,16,17-hexaazatricyclo[11.3.1.0^3,7]heptadeca-1(16),3,6,13(17),14-pentaene]
6 | ≤ 10 | Cc1c2c(nn1CCN1C[C@H]3C[C@@H]1CO3)OCCC(C)Nc1nc(ncc1Cl)N2 (single isomer, unassigned) [E211]
7 | ≤ 0.1 | Cc1c2c(nn1C1CC3CCC(C1)O3)OCCCNc1nc(ncc1Cl)N2 (single isomer, unassigned) [E244, 14-Chloro-4-methyl-5-{8-oxabicyclo[3.2.1]octan-3-yl}-8-oxa-2,5,6,12,16,17-hexaazatricyclo[11.3.1.0^3,7] heptadeca-1(16),3,6,13(17),14-pentaene]
8 | ≤ 10 | Cc1c2c(nn1C1CC3CCC(C1)O3)OCCC(C)Nc1nc(ncc1Cl)N2 (single isomer, unassigned) [E250, 14-Chloro-4,11-dimethyl-5-{8-oxabicyclo[3.2.1]octan-3-yl}-8-oxa-2,5,6,12,16,17-hexaazatricyclo[11.3.1.0^3,7] heptadeca-1(16),3,6,13(17),14-pentaene]
9 | ≤ 0.1 | Cc1c2c(nn1C1CC3CCC(C1)O3)OCCC(C)Nc1nc(ncc1Cl)N2 (single isomer, unassigned) [E251, 14-Chloro-4,11-dimethyl-5-{8-oxabicyclo[3.2.1]octan-3-yl}-8-oxa-2,5,6,12,16,17-hexaazatricyclo[11.3.1.0^3,7] heptadeca-1(16),3,6,13(17),14-pentaene]
10 | ≤ 0.1 | Cc1c2c(nn1C1CCOCC1)OCC[C@@H](C(C)C)Nc1nc(ncc1Cl)N2 [E298, (11S)-14-Chloro-4-methyl-5-(oxan-4-yl)-11-(propan-2-yl)-8-oxa-2,5,6,12,16,17-hexaazatricyclo[11.3.1.0^3,7]heptadeca-1(16),3,6,13(17),14-pentaene]
11 | ≤ 10 | Cc1c2c(nn1C1CCOCC1)OCC(F)C(C)Nc1nc(ncc1Cl)N2 (single isomer, unassigned) [E63, 14-Chloro-10-fluoro-4,11-dimethyl-5-(oxan-4-yl)-8-oxa-2,5,6,12, 16,17-hexaazatricyclo[11.3.1.0^3,7]heptadeca-1(16),3,6,13(17),14-pentaene]
12 | ≤ 0.1 | Cc1c2c(nn1C1CCN(C3COC3)CC1(F)F)OCCCNc1nc(ncc1Cl)N2 (single isomer, unassigned) [E405, 14-Chloro-5-[3,3-difluoro-1-(oxetan-3-yl)piperidin-4-yl]-4-methyl-8-oxa-2,5,6,12,16,17-hexaazatricyclo[11.3.1.0^3,7]heptadeca-1(16),3,6,13(17),14-pentaene]
13 | ≤ 10 | COC1CNc2nc(ncc2Cl)Nc2c(nn(C3CC(C)OC(C)C3)c2C)OC1 (single isomer, unassigned) [E199, 14-Chloro-5-(2,6-dimethyloxan-4-yl)-10-methoxy-4-methyl-8-oxa-2,5,6,12,16,17-hexaazatricyclo[11.3.1.0^3,7] heptadeca-1(16),3,6,13(17),14-pentaene]
14 | ≤ 0.1 | COCC1CCOc2nn(C3CCOCC3F)c(C)c2Nc2ncc(Cl)c(n2)N1 (single isomer, unassigned) [E358, 14-Chloro-5-(3-fluorooxan-4-yl)-11-(methoxymethyl)-4-methyl-8-oxa-2,5,6,12,16,17-hexaazatricyclo [11.3. 1.0^3,7]heptadeca-1(16),3,6,13(17),14-pentaene]
15 | ≤ 10 | COC1CNc2nc(ncc2Cl)Nc2c(nn(CC3(C)COC3)c2C)OC1 (single isomer, unassigned) [E273, 14-Chloro-10-methoxy-4-methyl-5-[(3-methyloxetan-3-yl)methyl]-8-oxa-2,5,6,12,16,17-hexaazatricyclo [11.3.1.0^3,7]heptadeca-1(16),3,6,13(17),14-pentaene]
16 | ≤ 0.1 | Cc1c2c(nn1C1CCC(C)CC1)OCCCNc1nc(ncc1Cl)N2 (single isomer, unassigned) [E258, 14-Chloro-4-methyl-5-(4-methylcyclohexyl)-8-oxa-2,5,6,12,16,17-hexaazatricyclo[11.3.1.0^3,7]heptadeca-1(16),3,6,13 (17),14-pentaene]
17 | ≤ 10 | Cc1c2c(nn1C1CCOCC1)OCC(C)C(C)Nc1nc(ncc1Cl)N2 (single isomer, unassigned) [E34, 14-chloro-4,10,11-trimethyl-5-(oxan-4-yl)-8-oxa-2,5,6,12,16,17-hexaazatricyclo [11.3.1.0^3,7]heptadeca-1(16),3,6,13(17),14-pentaene]
18 | ≤ 0.1 | Clc1cnc2nc1NCCCOc1nn(C3CCOC3)c(Cl)c1N2 (single isomer, unassigned) [E146, 4,14-Dichloro-5-(oxolan-3-yl)-8-oxa-2,5,6,12, 16,17-hexaaza tricyclo[11.3.1.0^3,7]heptadeca-1(16),3,6,13(17), 14-pentaene]
19 | ≤ 10 | Cc1c2c(nn1C(C)(C)C#N)OCC[C@@H](C(C)C)Nc1nc(ncc1Cl)N2 [E323, 2-[(11S)-14-Chloro-4-methyl-11-(propan-2-yl)-8-oxa-2,5,6,12, 16,17-hexaazatricyclo[11.3.1.0^3,7]heptadeca-1(16),3,6,13(17),14-pentaen-5-yl]-2-methylpropanenitrile]
20 | ≤ 0.1 | Cc1c2c(nn1C1CCCN(C3COC3)C1)OCC[C@@H](C)Nc1nc(ncc1Cl)N2 (single isomer, unassigned) [E68]
21 | ≤ 0.1 | Cc1c2c(nn1C1CC(C)OC(C)C1)OCCCNc1nc(ncc1Cl)N2 (single isomer, unassigned) [E201, 14-Chloro-5-(2,6-dimethyloxan-4-yl)-4-methyl-8-oxa-2,5,6,12,16,17-hexaazatricyclo[11.3.1.0^3,7]heptadeca-1(16),3,6,13(17),14-pentaene]
22 | ≤ 10 | COC(C)c1c2c(nn1C1CCOCC1)OCC[C@@H](C)Nc1nc(ncc1Cl)N2 (stereo partly drawn) [E409, (11R)-14-Chloro-4-(1-methoxyethyl)-11-methyl-5-(oxan-4-yl)-8-oxa-2,5,6,12,16,17-hexaazatricyclo[11.3.1.0^3,7]heptadeca-1(17),3,6,13,15-pentaene]
